In series [1] the test system is Mus musculus. In words: Anticonvulsant activity in Carworth farms No.1 albino mouse assessed as protection against maximum electroshock at 30 mg/kg, ip measured after 0.5 hrs. It counts as functional, organism-based. More on the design: dose 30 mg/kg.
The subject of series [2] is Mus musculus. The series can be described thus: Anticonvulsant activity in Carworth farms No.1 albino mouse assessed as protection against maximum electroshock at 100 mg/kg, ip measured after 0.5 hrs. Type of series: functional, organism-based. More on the design: dose 100 mg/kg.
Series [3] has as its system Mus musculus. In words: Anticonvulsant activity in Carworth farms No.1 albino mouse assessed as protection against maximum electroshock at 300 mg/kg, ip measured after 0.5 hrs. It counts as functional, organism-based. Set-up: dose 300 mg/kg.
The subject of series [4] is Mus musculus. The series can be described thus: Anticonvulsant activity in Carworth farms No.1 albino mouse assessed as protection against maximum electroshock at 30 mg/kg, ip measured after 4 hrs. It counts as functional, organism-based. More on the design: dose 30 mg/kg.
For series [5], the system named is Mus musculus. In words: Anticonvulsant activity in Carworth farms No.1 albino mouse assessed as protection against maximum electroshock at 100 mg/kg, ip measured after 4 hrs. Type of series: functional, organism-based. More on the design: dose 100 mg/kg.
Series [6] concerns Mus musculus. The series can be described thus: Anticonvulsant activity in Carworth farms No.1 albino mouse assessed as protection against maximum electroshock at 300 mg/kg, ip measured after 4 hrs. More on the design: dose 300 mg/kg. Type of series: functional, organism-based.
Series [7] has as its system Mus musculus. The series can be described thus: Anticonvulsant activity in Carworth farms No.1 albino mouse assessed as protection against subcutaneous metrazole-induced seizures at 30 mg/kg, ip measured after 0.5 hrs. Type of series: functional, organism-based. Set-up: dose 30 mg/kg.
Series [8] concerns Mus musculus. The series can be described thus: Anticonvulsant activity in Carworth farms No.1 albino mouse assessed as protection against subcutaneous metrazole-induced seizures at 100 mg/kg, ip measured after 0.5 hrs. It counts as functional, organism-based. More on the design: dose 100 mg/kg.
In series [9] the test system is Mus musculus. In words: Anticonvulsant activity in Carworth farms No.1 albino mouse assessed as protection against subcutaneous metrazole-induced seizures at 300 mg/kg, ip measured after 0.5 hrs. Set-up: dose 300 mg/kg. It counts as functional, organism-based.
Series [10] relates to Mus musculus. In words: Anticonvulsant activity in Carworth farms No.1 albino mouse assessed as protection against subcutaneous metrazole-induced seizures at 30 mg/kg, ip measured after 4 hrs. Type of series: functional, organism-based. Set-up: dose 30 mg/kg.
The subject of series [11] is Mus musculus. In words: Anticonvulsant activity in Carworth farms No.1 albino mouse assessed as protection against subcutaneous metrazole-induced seizures at 100 mg/kg, ip measured after 4 hrs. It counts as functional, organism-based. Set-up: dose 100 mg/kg.
The test system of series [12] is Mus musculus. In words: Anticonvulsant activity in Carworth farms No.1 albino mouse assessed as protection against subcutaneous metrazole-induced seizures at 300 mg/kg, ip measured after 4 hrs. Type of series: functional, organism-based. More on the design: dose 300 mg/kg.
In series [13] the test system is Mus musculus. The series can be described thus: Neurotoxicity in Carworth farms No.1 albino mouse assessed as neurological impairment at 30 mg/kg, ip measured after 0.5 hrs. It counts as toxicity, organism-based. More on the design: dose 30 mg/kg, route intraperitoneal. The conditions noted are these: in vivo.
Series [14] relates to Mus musculus. In words: Neurotoxicity in Carworth farms No.1 albino mouse assessed as neurological impairment at 100 mg/kg, ip measured after 0.5 hrs. Type of series: toxicity, organism-based. Set-up: dose 100 mg/kg, route intraperitoneal. The conditions noted are these: in vivo.
The test system of series [15] is Mus musculus. The series can be described thus: Neurotoxicity in Carworth farms No.1 albino mouse assessed as neurological impairment at 300 mg/kg, ip measured after 0.5 hrs. The note with it: in vivo. It counts as toxicity, organism-based. Set-up: dose 300 mg/kg, route intraperitoneal.
The subject of series [16] is Mus musculus. The series can be described thus: Neurotoxicity in Carworth farms No.1 albino mouse assessed as neurological impairment at 30 mg/kg, ip measured after 4 hrs. Set-up: dose 30 mg/kg, route intraperitoneal. Type of series: toxicity, organism-based. The conditions noted are these: in vivo.
Series [17] concerns Mus musculus. In words: Neurotoxicity in Carworth farms No.1 albino mouse assessed as neurological impairment at 100 mg/kg, ip measured after 4 hrs. It counts as toxicity, organism-based. Set-up: dose 100 mg/kg, route intraperitoneal. The conditions noted are these: in vivo.
Series [18] relates to Mus musculus. The series can be described thus: Neurotoxicity in Carworth farms No.1 albino mouse assessed as neurological impairment at 300 mg/kg, ip measured after 4 hrs. More on the design: dose 300 mg/kg, route intraperitoneal. Type of series: toxicity, organism-based. The note with it: in vivo.
Series [19] deals with Mus musculus. The series can be described thus: Anticonvulsant activity in Carworth farms No.1 albino mouse assessed as protection against 6 Hz electric current-induced seizure at 100 mg/kg, ip measured after 0.25 hrs. Type of series: functional, organism-based. More on the design: dose 100 mg/kg.
The test system of series [20] is Mus musculus. The series can be described thus: Anticonvulsant activity in Carworth farms No.1 albino mouse assessed as protection against 6 Hz electric current-induced seizure at 100 mg/kg, ip measured after 0.5 hrs. It counts as functional, organism-based. Set-up: dose 100 mg/kg.
Series [21] deals with Mus musculus. The series can be described thus: Anticonvulsant activity in Carworth farms No.1 albino mouse assessed as protection against 6 Hz electric current-induced seizure at 100 mg/kg, ip measured after 1 hrs. More on the design: dose 100 mg/kg. It counts as functional, organism-based.
Series [22] deals with Mus musculus. In words: Anticonvulsant activity in Carworth farms No.1 albino mouse assessed as protection against 6 Hz electric current-induced seizure at 100 mg/kg, ip measured after 2 hrs. Type of series: functional, organism-based. More on the design: dose 100 mg/kg.
For series [23], the system named is Mus musculus. The series can be described thus: Anticonvulsant activity in Carworth farms No.1 albino mouse assessed as protection against 6 Hz electric current-induced seizure at 100 mg/kg, ip measured after 4 hrs. Set-up: dose 100 mg/kg. It counts as functional, organism-based.
Series [24] deals with Mus musculus. In words: Neurotoxicity in Carworth farms No.1 albino mouse assessed as neurological impairment at 100 mg/kg, ip measured after 0.25 hrs. Type of series: toxicity, organism-based. Set-up: dose 100 mg/kg, route intraperitoneal. The note with it: in vivo.
For series [25], the system named is Mus musculus. The series can be described thus: Neurotoxicity in Carworth farms No.1 albino mouse assessed as neurological impairment at 100 mg/kg, ip measured after 1 hr. It counts as toxicity, organism-based. More on the design: dose 100 mg/kg, route intraperitoneal. The conditions noted are these: in vivo.
For series [26], the system named is Mus musculus. In words: Neurotoxicity in Carworth farms No.1 albino mouse assessed as neurological impairment at 100 mg/kg, ip measured after 2 hr. It counts as toxicity, organism-based. Set-up: dose 100 mg/kg, route intraperitoneal. The note with it: in vivo.

Active and inactive are the calls of the source. The rule behind the calls is not given here.

As to `Cl.O=C1[C@H]2CCCCN2[C@H](c2ccccc2)C(=O)N1Cc1ccccc1`, the outcome with Mus musculus [1], in the series on Mus musculus [2], in the series with Mus musculus [4], in the series with Mus musculus [5], in the series with Mus musculus [7] and in the series on Mus musculus [8] was inactive. Besides, the result in the series with Mus musculus [9], in the series with Mus musculus [10], in the series on Mus musculus [11] and in the series on Mus musculus [12] was inactive. Also, the result in the series on Mus musculus [3] and in the series on Mus musculus [6] was Active. Further, the Activity result in the series with Mus musculus [13] was “Non-toxic”; in the series on Mus musculus [14], “Non-toxic”; with Mus musculus [15], “Toxic”; in the series with Mus musculus [16], “Non-toxic”; in the series on Mus musculus [17], “Non-toxic”; in the series on Mus musculus [18] it was “Non-toxic”.

In the case of `O=C1CN2CCCC[C@@H]2C(=O)N1`, the outcome in the series with Mus musculus [1], with Mus musculus [2], in the series on Mus musculus [3], in the series on Mus musculus [4], in the series with Mus musculus [5] and with Mus musculus [6] was inactive. The outcome with Mus musculus [7], in the series on Mus musculus [8], in the series with Mus musculus [9], in the series on Mus musculus [10], in the series with Mus musculus [11] and in the series on Mus musculus [12] was inactive. The outcome with Mus musculus [19], with Mus musculus [22] and in the series on Mus musculus [23] was inactive. Besides, the Activity result with Mus musculus [13], in the series on Mus musculus [14], in the series on Mus musculus [15], in the series on Mus musculus [16], with Mus musculus [17] and in the series with Mus musculus [18] was “Non-toxic” each time. Besides, the Activity result in the series with Mus musculus [24], in the series on Mus musculus [25] and in the series on Mus musculus [26] was “Non-toxic” each time. In addition, the outcome in the series with Mus musculus [20] and in the series on Mus musculus [21] was Active.

For the molecule `O=C1NC(=O)[C@@H](c2ccccc2)N2CCCC[C@@H]12`, the outcome in the series with Mus musculus [1], in the series with Mus musculus [2], in the series with Mus musculus [3], with Mus musculus [4], with Mus musculus [5] and in the series with Mus musculus [6] was inactive. Besides, the result with Mus musculus [7], in the series on Mus musculus [8], in the series on Mus musculus [9], with Mus musculus [10], in the series with Mus musculus [11] and in the series with Mus musculus [12] was inactive. The outcome in the series on Mus musculus [19], with Mus musculus [20], in the series with Mus musculus [21], in the series on Mus musculus [22] and with Mus musculus [23] was inactive. In addition, the Activity entry in the series on Mus musculus [13], with Mus musculus [14], in the series on Mus musculus [15], in the series with Mus musculus [16], in the series on Mus musculus [17] and with Mus musculus [18] was “Non-toxic” each time. Further, the Activity entry in the series with Mus musculus [24], in the series with Mus musculus [25] and in the series with Mus musculus [26] was “Non-toxic” throughout.

Regarding `Cl.O=C1[C@H](c2ccccc2)N2CCCC[C@H]2C(=O)N1CCc1ccccc1`, the Activity entry in the series with Mus musculus [13], in the series on Mus musculus [14], in the series with Mus musculus [15], with Mus musculus [16], in the series on Mus musculus [17] and in the series on Mus musculus [18] was “Non-toxic” each time. Further, the Activity entry in the series with Mus musculus [24], in the series on Mus musculus [25] and in the series on Mus musculus [26] was “Non-toxic” throughout.

In the case of `O=C1[C@H](c2ccccc2)N2CCCC[C@H]2C(=O)N1CCc1ccccc1` [listing 1 of 2 here], the Activity entry in the series with Mus musculus [13], with Mus musculus [14], with Mus musculus [15], in the series with Mus musculus [16], in the series with Mus musculus [17] and in the series with Mus musculus [18] was “Non-toxic” throughout.

Take `O=C1[C@H]2CCCCN2[C@H](c2ccccc2)C(=O)N1CCc1ccccc1` [listing 1 of 2 here]: the Activity entry in the series on Mus musculus [13], in the series on Mus musculus [14], in the series with Mus musculus [15], in the series with Mus musculus [16], with Mus musculus [17] and in the series with Mus musculus [18] was “Non-toxic” in each case. Also, the Activity result in the series on Mus musculus [24], in the series with Mus musculus [25] and in the series on Mus musculus [26] was “Non-toxic” in each case.

Take `O=C1[C@H](c2ccccc2)N2CCCC[C@H]2C(=O)N1CCc1ccccc1` [listing 2 of 2 here]: the result in the series on Mus musculus [1], with Mus musculus [2], with Mus musculus [3], in the series with Mus musculus [4], in the series on Mus musculus [5] and in the series on Mus musculus [6] was inactive. The result in the series with Mus musculus [7], in the series with Mus musculus [8], with Mus musculus [9], in the series on Mus musculus [10], in the series with Mus musculus [11] and in the series on Mus musculus [12] was inactive. For the same molecule, the outcome in the series on Mus musculus [21], in the series with Mus musculus [22] and in the series with Mus musculus [23] was inactive. For the same molecule, the result in the series with Mus musculus [19] and with Mus musculus [20] was Active.

For `O=C1[C@H]2CCCCN2[C@H](c2ccccc2)C(=O)N1CCc1ccccc1` [listing 2 of 2 here], the result with Mus musculus [1], in the series on Mus musculus [2], with Mus musculus [3], in the series with Mus musculus [4], in the series on Mus musculus [5] and in the series with Mus musculus [6] was inactive. In addition, the result in the series on Mus musculus [7], with Mus musculus [8], in the series on Mus musculus [9], in the series with Mus musculus [10], in the series with Mus musculus [11] and in the series with Mus musculus [12] was inactive. The outcome in the series with Mus musculus [23] was inactive.

These data come from ChEMBL document CHEMBL1944578, “Synthesis and anticonvulsant activity of novel 2,6-diketopiperazine derivatives. Part 2: Perhydropyrido[1,2-a]pyrazines” (Eur J Med Chem, 2012).
